According to patent US5073571A, “Method of inhibiting virus” (priority 1989, dated 1991):

What was measured:
HIV-1 [1] = assay: HIV-1 replication in H9 cells, reverse transcriptase activity of culture supernatants (acute infection); assay type: cell-based, HIV-1 strain HXB2gptX (in human H9 cells); conditions: for effect on reverse transcriptase activity: 1-10 μM, 10 day incubation, HIV-1 infected H9 cells; for activity at 100 µM: Human immunodeficiency virus 1, H9, 240 h, read-out: reverse transcriptase (RT) activity
Experimental: (§1) Media was changed every other day. The effect of these compounds on virus production was determined by measuring the reverse transcriptase (RT) activity in samples of the cell culture supernatants. […] Negative controls consisted of no additions or 0.1ethanol. The results of duplicate assays were averaged. Panel B -Concentration-dependent effects of 13-oxamyristic acid on HIV-1 replication as measured by RT activity (percent of untreated control) and the presence of p24 antigen (ng/ml determined by ELISA). Error bars indicate the S.E.M. of assays done in triplicate. Panel C - The effect of 13-oxamyristic acid on syncytia formation using an arbitrary scale described under Materials and Methods, Example 16, below. Panel D - Toxicity of 13-oxamyristic acid determined by viable cell count (trypan blue exclusion), as well as by [^3 H]thymidine and [^3 H]leucine labeling (see under Materials and Methods, Example 16, below). The incorporation of these radiolabeled compounds was determined in the total cell population contained in a well after 10 days of treatment with the analog. Duplicate assays were performed and the results averaged.
Assay for HIV-1 Replication. The human T-lymphoid cell line, H9, was provided by R. D. Gallo (NIH) and maintained in RPMI-1640 medium supplemented with 10% fetal bovine serum, 100 IU/mL penicillin, 100 μg/mL streptomycin an 2 mM L-glutamine. HIV-1 strain HXB2gptX [Fisher et al., Science 233, 655-659 (1986)] was obtained from cultures of chronically infected H9 cells [Popovic et al., Science 224, 497-500 (1984)]< filtered through 0.2 μm Millipore filters and stored at -90° C. The titer of the virus stock was determined by serial dilution using syncytia formation and reverse transcriptase activity (see below) as a measure of infectivity in H9 cells.
Cell-free HIV-1, at a multiplicity of infection (m.o.i.) equal to 0.01-0.001, was added to 10^7 H9 cells which had been pretreated with 2 μg/ml Polybrene® (hexadimethrene bromide, Sigma). Following a 30 min incubation at 37° C. to absorb the virus, 4 × 10^5 of virus treated cells in 1 mL of fresh medium (plus 10% fetal calf serum, pencillin and streptomycin) were added to each well of a 24 well tissue culture plate (Falcon), and mixed with an equal volume of serum-free RPMI-1640 medium containing analog. Medium containing 5% serum, antibiotics ± analog was replaced every other day. Each of the heteroatom substituted analogs was prepared as a 100 mM stock solution in 100% ethanol and stored at -90° C. prior to dilution in the serum-free RPMI-1640 medium. The maximum final ethanol concentration reached after dilution of the different analogs in media was 0.1%. Therefore, uninfected and infected H9 cells, treated with or without 0.1% ethanol, were used as controls for each test. Ethanol alone had no demonstrable effects.
Except for the preliminary screening of the various (coded) analogs which was done twice, all other assays were performed at least three times. Samples were tested in duplicate each time the assay was repeated.
Virus Assays. Virus was quantitated using supernatant solutions of cells harvested on day 8 (m.o.i.=0.01) or day 10 (m.o.i.=0.001) of treatment. Virions were concentrated 10 fold by precipitation of culture supernatants with a solution of polyethylene glycol (30% in 150 mM NaCl, 0.1 mM phenylmethylsulfonylfluoride). The precipitates were solubilized and virus-associated reverse transcriptase (RT) activity measured by [^32 P]TTP incorporation using a poly(rA)-oligo(dT) template [Poiesz et al., Proc. Natl. Acad. Sci. USA 77, 7415-7419 (1980)]. Cell supernatants were also tested for virus-specific antigen using a p24 ELISA from Dupont (Wilmington, DE). This assay can detect as little as 0.03 ng of antigen/mL (antigen=p24, the major structural nucleocapsid protein of HIV-1, as well as its precursor, Pr55^gag).
HIV-1 Replication in H9 Cells is Inhibited by Treatment with Heteroatom-Containing Analogs of Myristate. […]

AIDS virus (HIV) = conditions: cited from earlier work
MoMLV = MoMLV replication: LZ1 virus titer by histochemical staining of NIH 3T3 cells for β-galactosidase; assay type: cell-based, Maloney murine leukemia virus
Text: Panel A -Schematic representation of the MoMLV assay system. […] This cell produces infectious, replication defective virus (designated (LZ1) which carries the LacZ gene. When NIH3T3 cells are exposed to supernatant taken from the LZ1 virus producing cells, they are initially infected and their progeny are detectable by histochemical staining for β-galactosidase. Thus, the titer of the virus produced by the LZ1 cells after treatment with the various agents, can be readily determined by counting the number of blue NIH3T3 cells. Replication competent MoMLV is not detected using this assay system since the lacZ gene product is not present. Panel B - The effect of 6-oxamyristic acid and 13-oxamyristic acid on LZ1 virus production. The results represent the mean (+1 standard deviation) of three independent tests each done in duplicate. Panel C - Number of viable LZ1 producing cells at the end of a 2 day treatment with analog as measured by trypan blue exclusion. The results of duplicate assays were averaged. Panel D - The effects of analog treatment on incorporation of [^3 H]leucine. Cells in duplicate wells were pulse labeled for 4 h following three days of incubation with analog or ethanol (0.1%). Duplicate assays were performed. The results were averaged and expressed as a percentage of the results obtained from untreated cells.
Assay of the Effects of Analogs on the Replication of Maloney Murine Leukemia Virus. The LZ1 titer assay was developed for rapid histochemical quantitation of infectious virus production. In brief, the LZ1 virus-producing cell line was derived by Sanes et al., EMBO J. 5, 3133-3142 (1986), from the .PSI.-2 cell line. .PSI.-2-cells are NIH 3T3 cells that contain a stably integrated packaging mutant (pMOV-.PSI.-) of MoMLV. This mutant has a deletion of 350 nucleotides between the 5' donor splice site for env and the initiator methionine codon for Pr65^gag [Mann et al., Cell 33, 153-159 (1983)]. The LZ1 cell line is a subclone of .PSI.-2 cells that were co-transfectd with pM-MuLV-SV-LacZ [Sanes et al., supra.]and pSVTK neoB and then selected for G418 (Geneticin®) antibiotic resistance and production of defective MoMLV containing the E. coli β-galactosidase gene [Sanes et al., supra.]. The recombinant virus produced by LZ1 cells is capable of primary infection of NIH 3T3 cells but is replication defective [Sanes et al., surpa.]. Infected NIH 3T3 containing the lac-Z gene can be identified by histochemical staining for β-galactosidase activity.
To assess the effects of analog treatment on MoMLV replication, 1 × 10^5 LZ1 producing cells were added to each well of a 24-well tissue culture plate in 1 mL of Dulbecco's Modified Eagle's medium (DME) containing calf serum (final concentration =10%), penicillin (100 IU/mL), streptomycin (100 μg/mL) with or without analog (10-100 μM). After 24 h, the media was removed and fresh serum-containing media ±analog was added. The next day (48 hours after plating), the virus containing supernatant was removed and passed through a 0.2 μm filter. Various size aliquots (25-100 μL of the 1 mL filtrate) were added to 1 × 10^4 NIH 3T3 cells contained in 1 mL of DME/10% calf serum/penicillin/streptomycin. These indicator cells had been plated 24 h earlier in 24 well tissue culture plates. Polybrene (Sigma) was added at the same time as the filtrate so that its final concentration was 10 μg/mL. […]

HIV-1 [2] = assay: Syncytia assay in HIV-1 infected H9 cells; assay type: cell-based, HIV-1 strain HXB2gptX (in human H9 cells); conditions: compared to infected, untreated H9 controls
Experimental: as §1
Assay for HIV-1 Replication. The human T-lymphoid cell line, H9, was provided by R. D. Gallo (NIH) and maintained in RPMI-1640 medium supplemented with 10% fetal bovine serum, 100 IU/mL penicillin, 100 μg/mL streptomycin an 2 mM L-glutamine. […] The titer of the virus stock was determined by serial dilution using syncytia formation and reverse transcriptase activity (see below) as a measure of infectivity in H9 cells. […]
Syncytia Assay. The number of syncytia in each well was determined by microscopic examination on days 4-6 (infected, untreated control cultures), 8 and 10 (analog or decanoate treated cultures). The average number of multi-nucleated giant cells counted per 10 low-power fields (LPF =40 times magnification) was assigned to an arbitrary syncytia scale: 0=<1/LPF, 1+=1-4/LPF, 2+=5-7/LPF, 3+= 8-10/LPF, 4+=>10/LPF. By this criteria uninfected, control cells had zero synctia, and infected, untreated H9 cells were consistently scored as 4+.

virus = assay: Antiviral effectiveness compared with C13-C14 analogs; conditions: C16 saturated fatty acid analog
Hydrophobicity = assay type: physicochemical; conditions: thioether moiety introduced into the fatty acid chain
[3] = system: myristoyl CoA: protein N-myristoyl transferase (NMT); assay: Ability to act as substrate for NMT; assay type: biochemical
Text: Purification and use of this enzyme are described, for example, by Towler et al., Proc. Natl. Acad. Sci. USA 84, 2708-2712 (1987); J. Biol. Chem. 262, 1030-1036 (1987).

Question: Which “effect on reverse transcriptase activity” value (HIV-1 [1]) does the source give for `CCCOCCCCCCCCCC(=O)O` [11oxamyristate, 10-(Propoxy)decanoic acid] here?
Answer: More pronounced effects

Question: Which “inhibition of replication of the virus in vitro” value (AIDS virus (HIV)) does the source give for `Cc1cn([C@H]2C[C@H](N=[N+]=[N-])[C@@H](CO)O2)c(=O)[nH]c1=O` [AZT, 3'-azido-3'-deoxythymidine, reference compound] here?
Answer: shown to inhibit replicaton of the virus in vitro

Question: And the inhibition at 5 µM (HIV-1 [1]; Human immunodeficiency virus 1, H9, read-out: inhibition of viral replication in the H9 acute assay)?
Answer: > 90%

Question: Which “effect on reverse transcriptase activity” value (HIV-1 [1]) does the source give for `CCCCCCCCOCCCCC(=O)O` [6-oxamyristate, 5-(octyloxy)pentanoic acid] here?
Answer: No reduction in reverse transcriptase activity

Question: And the “relative efficacy on HIV-1 production” value (HIV-1 [1]; 1-100 μM, H9 cells, ranking among the four analogs)?
Answer: least effective

Question: And the “effect on HIV-1 production / replication” value (HIV-1 [1]; H9 cells)?
Answer: no effect on HIV-1 replication

Question: What about the activity at 100 µM (HIV-1 [1]) of the same molecule?
Answer: 20%

Question: And the inhibition at 100 µM (MoMLV; Murine leukemia virus, NIH3T3, 48 h, read-out: average reduction in virus titers (MoMLV))?
Answer: > 60%

Question: What about the inhibition at 10 µM (MoMLV; Murine leukemia virus, NIH3T3, 48 h, read-out: reduction in MoMLV replication (virus titer)) of the same molecule?
Answer: 40%

Question: And the “effect on MoMLV replication” value (MoMLV; up to 100 μM, 2 day treatment of LZ1 cells)?
Answer: inhibits MoMLV replication in a concentration dependent fashion

Question: For `CCCCCCCCCC(=O)O` [decanoic acid, reference compound], which “effect on number of syncytia” value (HIV-1 [2]) is on record?
Answer: no effect on the number of synctia

Question: And the activity at 100 µM (HIV-1 [1])?
Answer: 80%

Question: And the “reduction of MoMLV titers compared to untreated controls” value (MoMLV; 10-100 μM, 2 day treatment of LZ1 cells)?
Answer: no significant reductions

Question: Which “effectiveness versus analogs based on C13-C14 fatty acids” value (virus) does the source give for `CCCCOCCCCCCCCCCC(=O)O` [Compound I, 11-(1-butoxy)undecanoic acid] here?
Answer: less effective than the analogs based on C13 -C14 fatty acids

Question: For `CCSCCCCCCCCCCC(=O)O` [12thiamyristate, 11-(Ethylthio)undecanoic acid], which hydrophobicity (Hydrophobicity) is on record?
Answer: decreases its hydrophobicity

Question: And the “ability to act as a substrate for NMT” value [3]?
Answer: leaves intact its ability to act as a substrate

Question: What about the “effect on reverse transcriptase activity” value (HIV-1 [1]) of the same molecule?
Answer: More pronounced effects
